Measured values: patent US20100113549A1, “PYRROLIDINE COMPOUNDS” (ISIS INNOVATION LTD., priority 2004, published 2010)
Where two headings read alike, the source gives them in different places.

Columns and labels:
[1] = target: T1, glucosylceramide synthase (GCS) (Homo sapiens, UniProt Q16739); test: Glucosylceramide synthase assay using HL-60 cell microsomes; format: biochemical; conditions: read-out: IC50 as GCS inhibitors
T1 construct: assay was conducted using HL-60 cell microsomes as described in the literature; endogenous in cells; host or cells: HL-60 cell microsomes
T1 sequence (Q16739 1-394): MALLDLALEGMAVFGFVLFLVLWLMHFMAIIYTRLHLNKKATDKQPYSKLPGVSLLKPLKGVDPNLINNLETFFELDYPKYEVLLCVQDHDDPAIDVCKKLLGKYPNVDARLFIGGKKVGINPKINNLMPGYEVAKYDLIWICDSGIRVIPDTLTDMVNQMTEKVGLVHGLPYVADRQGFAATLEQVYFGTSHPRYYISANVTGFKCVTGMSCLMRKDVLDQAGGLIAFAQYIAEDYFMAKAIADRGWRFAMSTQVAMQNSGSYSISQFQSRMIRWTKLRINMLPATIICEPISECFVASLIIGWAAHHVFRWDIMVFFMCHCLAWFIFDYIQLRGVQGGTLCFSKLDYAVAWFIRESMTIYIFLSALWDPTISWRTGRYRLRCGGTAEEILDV
Protocol: Glucosylceramide synthase [UDP-glucose N-acyl-sphingosine glucosyltransferase (EC 2.4.1.80)] assay was conducted using HL-60 cell microsomes as described in the literature.^iv
All inhibitors were screened at a concentration of 100 μM against glycosidases and 50 μM against glucosylceramide synthase; all assays were recorded in duplicate.

[2] = system: bovine diarrhoea virus (BVDV); test: BVDV antiviral assay in MDBK cells, plaque assay of secreted virus; format: cell-based; conditions: Bovine viral diarrhea virus isolates and strains; MOI=0.5, MDBK cells; read-out: IC50 against BVDV
Protocol: Madin-Darby bovine kidney cells (MDBK) were grown in DMEM/F12 (purchased from Gibco BRL) supplemented with 10% heat-inactivated horse serum (Gibco BRL). The cytopathic NADL strain of bovine viral diarrhoea virus (BVDV) (kindly provided by Dr. Ruben Donis, University of Nebraska) stock was prepared as previously described.^viii For antiviral activity testing MDBK cells were plated into 24 well plates 24 hours before virus infection. Cells were infected with BVDV at moi=0.5 for 1 hour in 100 μL media with occasional rocking of the plate. The inocula were washed twice with media and regular media were added with 100 μM of the test compound. After 24 hours, the supernatant media were saved. Secreted viruses in the media were titred on new MDBK cells by standard plaque assay. Toxicity of the compounds was determined by examining the tissue culture cells after the 24 hour treatment.

[3] = system: bovine diarrhoea virus (BVDV); conditions: MOI=0.1, literature (ref 16); read-out: IC50 against BVDV; cited from earlier work

1-Butyl-2,3-trans-2-(1-pentylcarbamoyl)-3,4-cis-O-isopropylidene-pyrrolidine [compound 10]
IC50 [1]: 117 µM

CC(C)(C)CC(C)(C)NC(=O)C1[C@H](O)[C@@H](O)CN1C(=O)c1ccccc1 (stereo partly shown) [9iiA]
IC50 [2]: 25 µM

CCCC(C)NC(=O)C1[C@H](O)[C@@H](O)CN1C(=O)c1cccc(N(C)C)c1 (stereo partly shown) [9viiG]
IC50 [2]: 30 µM

CC(C)NC(=O)C1[C@H](O)[C@@H](O)CN1C(=O)c1ccoc1 (stereo partly shown) [9viiiF]
IC50 [2]: 30 µM

CCCCN1C[C@H](O)[C@@H](O)[C@H](O)[C@H]1CO [NB-DNJ]
IC50 [3]: 125 µM

CCCCCCCCCN1C[C@H](O)[C@@H](O)[C@H](O)[C@H]1CO [NN-DNJ]
IC50 [3]: 10 µM

CCCCCNC(=O)C1NCC2OC(C)(C)OC21 (stereo not drawn) [compound 11, 2,3-trans-2-(1-Pentylcarbamoyl)-3,4-cis-O-isopropylidene-pyrrolidine]
IC50 [1]: 140 µM
